Test results as given in patent US6358885B1, “Substituted phenylheterocyclic herbicides” (Mississippi State University, priority 1992, dated 2002).

Legend:
giant foxtail = assay: Test C preemergence/postemergence greenhouse plant response rating 0 to 100; format: in vivo, Setaria faberii; conditions: for Plant response rating, Giant foxtail: 0 to 100 scale
Procedure, shortened: (§1)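 Compounds in non-phytotoxic solvent applied preemergence to sandy loam one day after planting, postemergence at the 1–4 leaf stage, or to ~2.5 cm floodwater over silt loam.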

bedstraw [1] = assay: Test B preemergence/postemergence greenhouse plant response rating 0 to 10; format: in vivo, Galium aparine; conditions: for Plant response rating, Bedstraw: 0 to 10 scale
Procedure, shortened: (§2)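 Planted seeds are treated preemergence with compound dissolved in a non-phytotoxic solvent, while postemergence applications go onto plants of two to eighteen cm. Plants stay in the greenhouse twelve to sixteen days and are then rated visually relative to controls.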

velvetleaf = assay: Test C preemergence/postemergence greenhouse plant response rating 0 to 100; format: in vivo, Abutilon theophrasti; conditions: for Plant response rating, Velvetleaf: 0 to 100 scale
Procedure, shortened: as §1

wheat = assay: as above; format: in vivo, Triticum aestivum; conditions: for Plant response rating, Wheat: 0 to 100 scale
Procedure, shortened: as §1

bedstraw [2] = assay: as above; format: in vivo, Galium aparine; conditions: for Plant response rating, Bedstraw: 0 to 100 scale
Procedure, shortened: as §1

morningglory = assay: as above; format: in vivo, Ipomoea hederacea; conditions: for Plant response rating, Morningglory: 0 to 100 scale
Procedure, shortened: as §1

cotton = assay: as above; format: in vivo, Gossypium hirsutum; conditions: for Plant response rating, Cotton: 0 to 100 scale
Procedure, shortened: as §1

wild buckwheat = assay: Test B preemergence/postemergence greenhouse plant response rating 0 to 10; format: in vivo, Polygonum convolvulus; conditions: for Plant response rating, Wild buckwheat: 0 to 10 scale
Procedure, shortened: as §2

Compound: C#CC(C)Oc1cc(-c2nn3c(c2Br)CCCC3)c(F)cc1Cl (stereo not drawn) [Compound 66]
- Plant response rating (0 to 100), Giant foxtail (giant foxtail; POSTEMERGENCE, Rate 4 g/ha): 30
- Plant response rating, Giant foxtail (giant foxtail; PREEMERGENCE, 62 g/ha): 20
- Plant response rating, Giant foxtail (giant foxtail; PREEMERGENCE, 250 g/ha): 100
- Plant response rating (0 to 100), Giant foxtail (giant foxtail; PREEMERGENCE, Rate 4 g/ha): 0
- Plant response rating (0 to 100), Giant foxtail (giant foxtail; Rate 16 g/ha, POSTEMERGENCE): 50
- Plant response rating (0 to 100), Giant foxtail (giant foxtail; Rate 16 g/ha, PREEMERGENCE): 0
- Plant response rating, Bedstraw (bedstraw [1]; POSTEMERGENCE, Rate 50 g/ha): 10
- Plant response rating, Bedstraw (bedstraw [1]; PREEMERGENCE, Rate 50 g/ha): 9
- Plant response rating (0 to 10 scale), Bedstraw (bedstraw [1]; PREEMERGENCE, Rate 200 g/ha): 10
- Plant response rating, Bedstraw (bedstraw [1]; Rate 200 g/ha, POSTEMERGENCE): 10
- Plant response rating, Velvetleaf (velvetleaf; POSTEMERGENCE, 62 g/ha): 75
- Plant response rating, Velvetleaf (velvetleaf; POSTEMERGENCE, 250 g/ha): 100
- Plant response rating (0 to 100), Velvetleaf (velvetleaf; POSTEMERGENCE, Rate 4 g/ha): 60
- Plant response rating, Velvetleaf (velvetleaf; PREEMERGENCE, 250 g/ha): 100
- Plant response rating (0 to 100), Velvetleaf (velvetleaf; Rate 16 g/ha, POSTEMERGENCE): 65
- Plant response rating (0 to 100), Velvetleaf (velvetleaf; Rate 16 g/ha, PREEMERGENCE): 70
- Plant response rating, Wheat (wheat; POSTEMERGENCE, 62 g/ha): 60
- Plant response rating, Wheat (wheat; POSTEMERGENCE, 250 g/ha): 70
- Plant response rating (0 to 100), Wheat (wheat; POSTEMERGENCE, Rate 4 g/ha): 20
- Plant response rating, Wheat (wheat; PREEMERGENCE, 250 g/ha): 70
- Plant response rating (0 to 100), Wheat (wheat; PREEMERGENCE, Rate 4 g/ha): 0
- Plant response rating (0 to 100), Wheat (wheat; Rate 16 g/ha, POSTEMERGENCE): 40
- Plant response rating (0 to 100), Wheat (wheat; Rate 16 g/ha, PREEMERGENCE): 0
- Plant response rating, Bedstraw (bedstraw [2]; POSTEMERGENCE, 62 g/ha): 100
- Plant response rating, Bedstraw (bedstraw [2]; POSTEMERGENCE, 250 g/ha): 100
- Plant response rating (0 to 100), Bedstraw (bedstraw [2]; POSTEMERGENCE, Rate 4 g/ha): 60
- Plant response rating, Bedstraw (bedstraw [2]; PREEMERGENCE, 62 g/ha): 80
- Plant response rating, Bedstraw (bedstraw [2]; PREEMERGENCE, 250 g/ha): 90
- Plant response rating (0 to 100), Bedstraw (bedstraw [2]; PREEMERGENCE, Rate 4 g/ha): 0
- Plant response rating (0 to 100), Bedstraw (bedstraw [2]; Rate 16 g/ha, POSTEMERGENCE): 85
- Plant response rating (0 to 100), Bedstraw (bedstraw [2]; Rate 16 g/ha, PREEMERGENCE): 20
- Plant response rating, Morningglory (morningglory; POSTEMERGENCE, 62 g/ha): 85
- Plant response rating, Morningglory (morningglory; POSTEMERGENCE, 250 g/ha): 100
- Plant response rating (0 to 100), Morningglory (morningglory; POSTEMERGENCE, Rate 4 g/ha): 50
- Plant response rating, Morningglory (morningglory; PREEMERGENCE, 62 g/ha): 10
- Plant response rating, Morningglory (morningglory; PREEMERGENCE, 250 g/ha): 60
- Plant response rating (0 to 100), Morningglory (morningglory; PREEMERGENCE, Rate 4 g/ha): 0
- Plant response rating (0 to 100), Morningglory (morningglory; Rate 16 g/ha, POSTEMERGENCE): 50
- Plant response rating (0 to 100), Morningglory (morningglory; Rate 16 g/ha, PREEMERGENCE): 0
- Plant response rating, Cotton (cotton; POSTEMERGENCE, 62 g/ha): 100
- Plant response rating, Cotton (cotton; POSTEMERGENCE, 250 g/ha): 100
- Plant response rating (0 to 100), Cotton (cotton; POSTEMERGENCE, Rate 4 g/ha): 70
- Plant response rating, Cotton (cotton; PREEMERGENCE, 62 g/ha): 40
- Plant response rating, Cotton (cotton; PREEMERGENCE, 250 g/ha): 90
- Plant response rating (0 to 100), Cotton (cotton; PREEMERGENCE, Rate 4 g/ha): 0
- Plant response rating (0 to 100), Cotton (cotton; Rate 16 g/ha, POSTEMERGENCE): 85
- Plant response rating (0 to 100), Cotton (cotton; Rate 16 g/ha, PREEMERGENCE): 0
- Plant response rating, Wild buckwheat (wild buckwheat; POSTEMERGENCE, Rate 50 g/ha): 10
- Plant response rating, Wild buckwheat (wild buckwheat; PREEMERGENCE, Rate 50 g/ha): 4
- Plant response rating (0 to 10 scale), Wild buckwheat (wild buckwheat; PREEMERGENCE, Rate 200 g/ha): 10
- Plant response rating, Wild buckwheat (wild buckwheat; Rate 200 g/ha, POSTEMERGENCE): 10
